Drawing on US6844435B2, “Heterocyclic compounds useful as inhibitors of tyrosine kinases” (Boehringer Ingelheim Pharmaceuticals, Inc., priority 2000, dated 2005), this text covers melting point for 1 compound.

Molecules are shown by their SMILES.

`C/C(=C\c1cc(N/C(=N\C(=O)OC(C)(C)C)NC(=O)OC(C)(C)C)cc(N/C(=N\C(=O)OC(C)(C)C)NC(=O)OC(C)(C)C)c1)c1nc2ccc3nc(Nc4c(Cl)cccc4Cl)[nH]c3c2c(=O)[nH]1` [Example 103]: the melting point (commonly the temperature, or range, at which the solid turns liquid) was above 300 °C.
